Data published in patent US20240239786A1, “COMPOSITIONS AND METHODS FOR THE TREATMENT AND PREVENTION OF CANCER” (Yale University, priority 2021, published 2024).

Key:
Type in all cases: cell-based
T cells = assay: PBMC T cell co-culture with PEO4 cells activated by CD3-CD28 beads; conditions: PBMCs co-cultured with treated PEO4 cells
Description: FIG. 23 depicts representative effects of DB4 or triapine on peripheral blood mononuclear cells (PBMCs) containing T cells that were co-cultured with BRCA-mutated PEO1 and BRCA-wild type PEO4 cells and activated by CD3-CD28 beads. PEO1 cells suppressed CD8-positive activated T cells.
FIG. 24 depicts representative effects of DB4 or triapine on peripheral blood mononuclear cells (PBMCs) containing T cells that were co-cultured with BRCA-mutated PEO1 and BRCA-wild type PEO4 cells and activated by CD3-CD28 beads. PEO1 cells increased PD1 and LAG3-positive exhausted T cells.
Further experiments were conducted using PBMCs containing T cells that were co-cultured with PEO1 or PEO4 cells and activated by CD3-CD28 beads (FIG. 23). […] Both DB4 and triapine are RNR inhibitors. As such, although not bound by any particular theory, it was hypothesized that DB4 turned BRCA-wild type EOC into immunogenic “hot” tumors. DB4 promoted an increase in tumor neoantigens and the recruitment of tumor infiltrating lymphocytes (TILs) to tumor stroma, which enabled an effective antitumor response elicited by immune checkpoint inhibitors.

PEO1 cells = assay: Flow cytometric EdU incorporation (DNA synthesis) assay, PEO1; conditions: for cell cycle distribution: 30 μM DB4 or 1 μM triapine; for time-dependent inhibition of DNA synthesis (EdU-positive cells): 30 μM DB4 or 1 μM triapine, 3, 6, 24 hr
Method: Cells were plated for 24 hr and then treated with 50 μM compounds for 72 hr. For a positive control, cells were treated with 1 μM triapine for 72 hr. The percentage of cell survival was determined by the MTS cytotoxicity assay. […] Cells were treated with 50 μM compounds or 1 μM triapine for 24 hr. During the last hour, cells were pulse-labeled with EdU, stained with the Click-iT EdU Alexa Fluor 488 Assay Kit, counterstained with 7-AAD, and subsequently analyzed by flow cytometry. EdU-positive cells were gated to determine the percentage of the S phase cell population. The bivariate plots of Alexa Fluor 488 (EdU-positive) and PE-Cy5 (7-AAD-positive) are shown. […] Cells were treated with 50 μM compounds or 1 μM triapine for 24 hr. During the last hour, cells were pulse-labeled with EdU, stained with the Click-iT EdU Alexa Fluor 488 Assay Kit, counterstained with 7-AAD, and subsequently analyzed by flow cytometry. EdU-positive cells were gated to determine the percentage of the S phase cell population. The percentages of DNA synthesis in cells treated with each of 10 compounds and triapine relative to the DMSO-treated control is calculated and shown. FIG. 2D depicts representative results of dNTP measurement on triapine and DB4 in PEO4 cells. Cells were treated with 1 μM triapine or 50 μM DB4 for 24 hr. Cells were extracted with 65% methanol for determination of each of dNTPs expressed as pmole/10^6 cells. Data are means±SD (N=3). *, p<0.05; **, p<0.01; ***, p<0.001, compared with the DMSO-treated control in each dNTP. […] PEO1 cells were pre-treated with 1 mM dA plus […], 10 mM dC plus 10 mM dT, or all dNs for 1 hr and then treated with various concentrations of DB4 or triapine for 72 hr. The percentage of cell survival was determined by the MTS cytotoxicity assay. Data are means±SD (N=3). *, p<0.05; **, p<0.01; ***, p<0.001, compared with the control in each concentration of DB4 or triapine. FIG. 2F depicts schematic representation of structures and molecular compound names of triapine, DB4, and A4.
PEO1 cells were treated with 30 μM DB4 or 1 μM triapine for indicated times, pulsed with EdU for 1 hr and subsequently assayed for DNA synthesis inhibition as described in FIG. 2B. The bivariate plots of Alexa Fluor 488 and PE-Cy5 were gated to determine % S phase cells. […] PEO4 cells were treated with 30 μM DB4 or 1 μM triapine for indicated times, pulsed with EdU for 1 hr and subsequently assayed for DNA synthesis inhibition as described in FIG. 2B. The bivariate plots of Alexa Fluor 488 and PE-Cy5 were gated to determine % S phase cells. […] The bivariate plots of Alexa Fluor 488 and PE-Cy5 shown in FIG. 6A and FIG. 6B were gated to determine % cells in G1, S, and G2/M phases. […] PEO4 cells were treated with 30 μM DB4 or 1 μM triapine for various time periods and subjected to western blot analysis for the levels of cyclin A2, p-CDK1/2, p-H1, p-Chk1, and HSC70. The HSC70 protein level was used as a loading control. Cropped gel images of protein bands are presented. Cyclin A2, p-CDK1/2, and p-H1 bands were from re-probing the same blot. p-Chk1 and HSC70 bands were from re-probing the same duplicated blot. […] The CDK2 activity is expressed by the percentage of the p-HI levels relative to that of the 0 hr control is shown. […] Protein was analyzed by western blotting for p-Chk1, p-ATR, p-RPA32, γH2AX, and HSC70. Cropped gel images of protein bands are presented. All protein bands were from re-probing the same blot. DSB end resection is assessed by the level of p-RPA32. […]

PEO4 cells = assay: Flow cytometric EdU incorporation (DNA synthesis) assay, PEO4; conditions: for time-dependent inhibition of DNA synthesis (EdU-positive cells): 30 μM DB4 or 1 μM triapine, 3, 6, 24 hr
Method: Cells were plated for 24 hr and then treated with 50 μM compounds for 72 hr. For a positive control, cells were treated with 1 μM triapine for 72 hr. The percentage of cell survival was determined by the MTS cytotoxicity assay. […] Cells were treated with 50 μM compounds or 1 μM triapine for 24 hr. During the last hour, cells were pulse-labeled with EdU, stained with the Click-iT EdU Alexa Fluor 488 Assay Kit, counterstained with 7-AAD, and subsequently analyzed by flow cytometry. EdU-positive cells were gated to determine the percentage of the S phase cell population. The bivariate plots of Alexa Fluor 488 (EdU-positive) and PE-Cy5 (7-AAD-positive) are shown. […] Cells were treated with 50 μM compounds or 1 μM triapine for 24 hr. During the last hour, cells were pulse-labeled with EdU, stained with the Click-iT EdU Alexa Fluor 488 Assay Kit, counterstained with 7-AAD, and subsequently analyzed by flow cytometry. EdU-positive cells were gated to determine the percentage of the S phase cell population. The percentages of DNA synthesis in cells treated with each of 10 compounds and triapine relative to the DMSO-treated control is calculated and shown. FIG. 2D depicts representative results of dNTP measurement on triapine and DB4 in PEO4 cells. Cells were treated with 1 μM triapine or 50 μM DB4 for 24 hr. Cells were extracted with 65% methanol for determination of each of dNTPs expressed as pmole/10^6 cells. Data are means±SD (N=3). *, p<0.05; **, p<0.01; ***, p<0.001, compared with the DMSO-treated control in each dNTP. […] The percentage of cell survival was determined by the MTS cytotoxicity assay. […]
PEO1 cells were treated with 30 μM DB4 or 1 μM triapine for indicated times, pulsed with EdU for 1 hr and subsequently assayed for DNA synthesis inhibition as described in FIG. 2B. […] Protein was analyzed by western blotting for p-Chk1, p-ATR, p-RPA32, γH2AX, and HSC70. […] DSB end resection is assessed by the level of p-RPA32. […]

Compound | T cell activation and exhaustion in co-culture with drug-treated PEO4 cells (T cells) | cell cycle distribution (PEO1 cells) | time-dependent inhibition of DNA synthesis (EdU-positive cells) (PEO1 cells) | inhibition at 50 µM (PEO1 cells; Homo sapiens, 50 μM, 24 hr) | time-dependent inhibition of DNA synthesis (EdU-positive cells) (PEO4 cells) | inhibition at 50 µM (PEO4 cells; 50 μM, 24 hr)
C=CCn1c(SCc2cccc(Cl)c2)nnc1C1CCN(Cc2nc3ccccc3s2)CC1 [DB4, 2-[(4-{4-allyl-5-[(3-chlorobenzyl)thio]-4H-1,2,4-triazol-3-yl}-1-piperidinyl)methyl]-1,3-benzothiazole] | suppressing T cell activation and enhancing T cell exhaustion | expansion of the G2/M population | gradual decline in the EdU-positive cell population | > 99% | gradual decline in the EdU-positive cell population | > 99%
NC(=S)NN=Cc1ncccc1N [triapine, 3-aminopyridine-2-carboxaldehyde-thiosemicarbazone, reference compound] | suppressing T cell activation and enhancing T cell exhaustion | expansion of the G2/M population | prompt reduction in EdU-positive cells | – | prompt reduction in EdU-positive cells | –
